pKi: −log10 of the molar value.
Each compound was assayed against T1, Suppressor of tumorigenicity 14 protein (Homo sapiens, UniProt Q9Y5Y6) (assay: Binding affinity to recombinant human Matriptase using Boc-QAR-AMC as substrate assessed as inhibition constant by fluorescence based analysis).
T1 sequence (Q9Y5Y6 whole entry): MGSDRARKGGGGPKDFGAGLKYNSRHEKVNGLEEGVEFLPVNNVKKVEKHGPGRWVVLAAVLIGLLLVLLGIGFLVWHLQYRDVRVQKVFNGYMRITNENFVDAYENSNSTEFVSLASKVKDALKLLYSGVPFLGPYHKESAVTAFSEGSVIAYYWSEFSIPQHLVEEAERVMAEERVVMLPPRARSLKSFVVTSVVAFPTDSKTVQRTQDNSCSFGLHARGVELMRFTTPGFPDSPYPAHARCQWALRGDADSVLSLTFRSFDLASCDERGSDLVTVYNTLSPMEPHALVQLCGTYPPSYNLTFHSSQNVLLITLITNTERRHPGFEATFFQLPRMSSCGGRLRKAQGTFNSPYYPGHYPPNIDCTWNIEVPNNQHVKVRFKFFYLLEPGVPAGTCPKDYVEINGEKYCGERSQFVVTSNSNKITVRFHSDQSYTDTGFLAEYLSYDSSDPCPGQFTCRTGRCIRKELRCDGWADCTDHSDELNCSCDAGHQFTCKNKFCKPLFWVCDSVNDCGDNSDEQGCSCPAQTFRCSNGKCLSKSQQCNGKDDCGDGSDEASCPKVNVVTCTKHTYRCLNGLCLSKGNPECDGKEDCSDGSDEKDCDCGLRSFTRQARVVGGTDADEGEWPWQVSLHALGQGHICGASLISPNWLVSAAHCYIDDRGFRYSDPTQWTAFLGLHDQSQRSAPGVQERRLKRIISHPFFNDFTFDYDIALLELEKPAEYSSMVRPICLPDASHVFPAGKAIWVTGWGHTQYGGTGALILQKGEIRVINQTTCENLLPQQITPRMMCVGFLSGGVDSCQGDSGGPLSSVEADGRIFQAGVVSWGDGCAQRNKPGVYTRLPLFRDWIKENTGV

In order of falling pKi:
1. N=C(N)NCCC[C@H](NC(=O)[C@H](CCc1ccccc1)NC(=O)[C@H](Cc1cscn1)NC(=O)CCc1ccccc1)C(=O)c1nc2ccccc2s1  8.48
2. CC[C@@H](C)[C@H](NC(=O)[C@H](Cc1cscn1)NC(=O)CCc1ccccc1)C(=O)N[C@@H](CCCNC(=N)N)C(=O)c1nc2ccccc2s1  8.06
3. N=C(N)NCCC[C@H](NC(=O)[C@H](CC1CCCCC1)NC(=O)[C@H](Cc1cscn1)NC(=O)CCc1ccccc1)C(=O)c1nc2ccccc2s1  8.04
4. N=C(N)NCCC[C@H](NC(=O)[C@H](CCC1CCCCC1)NC(=O)[C@H](Cc1cscn1)NC(=O)CCc1ccccc1)C(=O)c1nc2ccccc2s1  7.91
5. CC(C)(C)C[C@H](NC(=O)[C@H](Cc1cscn1)NC(=O)CCc1ccccc1)C(=O)N[C@@H](CCCNC(=N)N)C(=O)c1nc2ccccc2s1  7.29

Each compound was assayed against T2, Transmembrane protease serine 6 (Homo sapiens, UniProt Q8IU80) (assay: Binding affinity to recombinant human TMPRSS6 using Boc-QAR-AMC as substrate assessed as inhibition constant by fluorescence based analysis).
T2 sequence (Q8IU80 whole entry): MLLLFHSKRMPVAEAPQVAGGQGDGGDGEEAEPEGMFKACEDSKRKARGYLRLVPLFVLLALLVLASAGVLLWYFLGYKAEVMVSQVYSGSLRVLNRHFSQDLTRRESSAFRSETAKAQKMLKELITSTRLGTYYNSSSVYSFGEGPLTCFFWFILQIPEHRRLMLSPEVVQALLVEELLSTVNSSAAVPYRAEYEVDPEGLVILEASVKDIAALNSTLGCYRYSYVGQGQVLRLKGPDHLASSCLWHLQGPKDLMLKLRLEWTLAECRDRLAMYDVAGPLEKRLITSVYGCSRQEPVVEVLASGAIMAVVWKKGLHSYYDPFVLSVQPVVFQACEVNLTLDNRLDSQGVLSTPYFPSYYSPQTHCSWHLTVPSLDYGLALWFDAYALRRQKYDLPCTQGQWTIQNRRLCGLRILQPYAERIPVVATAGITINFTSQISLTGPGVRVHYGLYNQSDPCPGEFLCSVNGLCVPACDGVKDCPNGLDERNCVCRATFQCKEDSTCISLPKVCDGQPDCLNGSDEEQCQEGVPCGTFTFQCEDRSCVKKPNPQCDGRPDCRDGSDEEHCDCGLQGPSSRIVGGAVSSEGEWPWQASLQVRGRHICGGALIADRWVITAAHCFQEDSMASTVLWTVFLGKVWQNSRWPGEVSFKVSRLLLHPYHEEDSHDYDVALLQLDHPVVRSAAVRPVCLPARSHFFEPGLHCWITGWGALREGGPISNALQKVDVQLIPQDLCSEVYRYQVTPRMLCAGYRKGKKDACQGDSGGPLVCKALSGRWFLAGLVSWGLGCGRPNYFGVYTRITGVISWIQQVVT

In order of falling pKi:
1. CC[C@@H](C)[C@H](NC(=O)[C@H](Cc1cscn1)NC(=O)CCc1ccccc1)C(=O)N[C@@H](CCCNC(=N)N)C(=O)c1nc2ccccc2s1  8.85
2. N=C(N)NCCC[C@H](NC(=O)[C@H](CCc1ccccc1)NC(=O)[C@H](Cc1cscn1)NC(=O)CCc1ccccc1)C(=O)c1nc2ccccc2s1  8.66
3. N=C(N)NCCC[C@H](NC(=O)[C@H](CC1CCCCC1)NC(=O)[C@H](Cc1cscn1)NC(=O)CCc1ccccc1)C(=O)c1nc2ccccc2s1  8.41
4. CC(C)(C)C[C@H](NC(=O)[C@H](Cc1cscn1)NC(=O)CCc1ccccc1)C(=O)N[C@@H](CCCNC(=N)N)C(=O)c1nc2ccccc2s1  8.34
5. N=C(N)NCCC[C@H](NC(=O)[C@H](CCC1CCCCC1)NC(=O)[C@H](Cc1cscn1)NC(=O)CCc1ccccc1)C(=O)c1nc2ccccc2s1  8.08

Species: Homo sapiens
Assay: Selectivity index, ratio of Ki for binding affinity to recombinant human Matriptase using Boc-QAR-AMC as substrate assessed as inhibition constant by fluorescence based analysis to Ki for binding affinity to recombinant human TMPRSS6 using Boc-QAR-AMC as substrate assessed as inhibition constant by fluorescence based analysis

In order of falling Ratio Ki:
1. CC(C)(C)C[C@H](NC(=O)[C@H](Cc1cscn1)NC(=O)CCc1ccccc1)C(=O)N[C@@H](CCCNC(=N)N)C(=O)c1nc2ccccc2s1  11
2. CC[C@@H](C)[C@H](NC(=O)[C@H](Cc1cscn1)NC(=O)CCc1ccccc1)C(=O)N[C@@H](CCCNC(=N)N)C(=O)c1nc2ccccc2s1  6.3
3. N=C(N)NCCC[C@H](NC(=O)[C@H](CC1CCCCC1)NC(=O)[C@H](Cc1cscn1)NC(=O)CCc1ccccc1)C(=O)c1nc2ccccc2s1  2.3
4. N=C(N)NCCC[C@H](NC(=O)[C@H](CCC1CCCCC1)NC(=O)[C@H](Cc1cscn1)NC(=O)CCc1ccccc1)C(=O)c1nc2ccccc2s1  1.5
5. N=C(N)NCCC[C@H](NC(=O)[C@H](CCc1ccccc1)NC(=O)[C@H](Cc1cscn1)NC(=O)CCc1ccccc1)C(=O)c1nc2ccccc2s1  1.5

Source: ChEMBL document CHEMBL5550199, “Rational In Silico Design of Selective TMPRSS6 Peptidomimetic Inhibitors via Exploitation of the S2 Subpocket” (J Med Chem, 2024)
